Assays:
Assay in all cases: radiometric filter-binding kinase assay, Kinase HotSpot
Settings in all cases: compound 0.5 µM; ATP 10 µM
MATK (human) = MATK (human) (UniProt P42679)
RPS6KA6 KD1 KD2 (human) = RPS6KA6 KD1 KD2 (human) (UniProt Q9UK32)
BRSK2 (human) = BRSK2 (human) (UniProt Q8IWQ3)
NTRK1 (human) = NTRK1 (human) (UniProt P04629)
RET (human) = RET (human) (UniProt P07949)
EPHA2 (human) = EPHA2 (human) (UniProt P29317)
TEK (human) = TEK (human) (UniProt Q02763)
TEC (human) = TEC (human) (UniProt P42680)
EPHB4 (human) = EPHB4 (human) (UniProt P54760)
NEK4 (human) = NEK4 (human) (UniProt P51957)
Chain of NEK4 (human) (P51957 whole entry, looked up): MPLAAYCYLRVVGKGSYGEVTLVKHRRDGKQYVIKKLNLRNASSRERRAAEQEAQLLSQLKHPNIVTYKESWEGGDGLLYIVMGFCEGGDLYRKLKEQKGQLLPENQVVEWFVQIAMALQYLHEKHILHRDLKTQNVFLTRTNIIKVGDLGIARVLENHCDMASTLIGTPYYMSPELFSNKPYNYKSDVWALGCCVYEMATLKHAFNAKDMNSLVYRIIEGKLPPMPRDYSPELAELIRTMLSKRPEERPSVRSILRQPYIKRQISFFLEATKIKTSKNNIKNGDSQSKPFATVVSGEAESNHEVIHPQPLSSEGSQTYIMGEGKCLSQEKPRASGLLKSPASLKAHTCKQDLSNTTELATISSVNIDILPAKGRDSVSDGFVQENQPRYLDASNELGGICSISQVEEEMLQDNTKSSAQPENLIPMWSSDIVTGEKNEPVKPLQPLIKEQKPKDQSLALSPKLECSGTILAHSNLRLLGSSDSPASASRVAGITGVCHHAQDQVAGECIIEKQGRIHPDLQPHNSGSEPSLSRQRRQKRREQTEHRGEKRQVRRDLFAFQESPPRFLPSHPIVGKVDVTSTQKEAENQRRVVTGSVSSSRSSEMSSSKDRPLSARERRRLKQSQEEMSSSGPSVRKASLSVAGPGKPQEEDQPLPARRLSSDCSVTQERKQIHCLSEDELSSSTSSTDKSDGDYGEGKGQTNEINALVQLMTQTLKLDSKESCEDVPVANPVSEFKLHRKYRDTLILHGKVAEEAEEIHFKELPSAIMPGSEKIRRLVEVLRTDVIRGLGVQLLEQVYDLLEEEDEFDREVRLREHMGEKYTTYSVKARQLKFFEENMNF

CAMK2G (human) = CAMK2G (human) (UniProt Q13555)
MAPK12 (human) = MAPK12 (human) (UniProt P53778)
ACVR1B (human) = ACVR1B (human) (UniProt P36896)
DAPK3 (human) = DAPK3 (human) (UniProt O43293)
NEK1 (human) = NEK1 (human) (UniProt Q96PY6)
MST1R (human) = MST1R (human) (UniProt Q04912)
ULK1 (human) = ULK1 (human) (UniProt O75385)
Chain of ULK1 (human) (O75385 whole entry, looked up): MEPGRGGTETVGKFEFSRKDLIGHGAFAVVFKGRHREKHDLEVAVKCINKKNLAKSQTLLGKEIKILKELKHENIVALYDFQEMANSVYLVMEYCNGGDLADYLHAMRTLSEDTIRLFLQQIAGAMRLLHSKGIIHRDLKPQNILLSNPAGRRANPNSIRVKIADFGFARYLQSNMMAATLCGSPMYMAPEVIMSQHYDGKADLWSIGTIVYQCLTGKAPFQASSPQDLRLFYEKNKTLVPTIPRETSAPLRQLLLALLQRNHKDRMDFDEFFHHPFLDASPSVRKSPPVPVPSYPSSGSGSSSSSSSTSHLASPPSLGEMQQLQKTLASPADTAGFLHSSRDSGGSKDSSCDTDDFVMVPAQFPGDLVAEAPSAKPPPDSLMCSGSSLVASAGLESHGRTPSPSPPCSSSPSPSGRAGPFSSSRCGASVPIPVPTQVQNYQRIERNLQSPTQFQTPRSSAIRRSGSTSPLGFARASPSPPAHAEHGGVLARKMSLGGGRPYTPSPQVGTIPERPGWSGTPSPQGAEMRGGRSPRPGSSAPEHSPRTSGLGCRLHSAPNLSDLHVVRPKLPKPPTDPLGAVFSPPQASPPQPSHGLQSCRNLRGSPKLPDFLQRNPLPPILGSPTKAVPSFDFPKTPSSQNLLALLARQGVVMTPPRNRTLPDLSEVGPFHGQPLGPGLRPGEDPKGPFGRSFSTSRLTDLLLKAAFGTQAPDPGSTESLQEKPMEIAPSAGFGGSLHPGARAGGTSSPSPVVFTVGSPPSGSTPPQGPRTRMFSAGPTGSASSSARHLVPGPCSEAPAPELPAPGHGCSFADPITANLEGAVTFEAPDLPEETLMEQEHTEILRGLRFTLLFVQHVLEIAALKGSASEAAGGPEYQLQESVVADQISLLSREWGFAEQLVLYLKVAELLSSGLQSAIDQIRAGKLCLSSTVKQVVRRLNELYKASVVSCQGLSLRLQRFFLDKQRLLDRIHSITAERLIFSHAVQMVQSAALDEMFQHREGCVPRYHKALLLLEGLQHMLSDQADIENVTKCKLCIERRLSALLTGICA

AKT1 (human) = AKT1 (human) (UniProt P31749)
ROCK2 (human) = ROCK2 (human) (UniProt O75116)
ADRBK2 (human) = ADRBK2 (human) (UniProt P35626)
STK39 (human) = STK39 (human) (UniProt Q9UEW8)
SLK (human) = SLK (human) (UniProt Q9H2G2)
Chain of SLK (human) (Q9H2G2 whole entry, looked up): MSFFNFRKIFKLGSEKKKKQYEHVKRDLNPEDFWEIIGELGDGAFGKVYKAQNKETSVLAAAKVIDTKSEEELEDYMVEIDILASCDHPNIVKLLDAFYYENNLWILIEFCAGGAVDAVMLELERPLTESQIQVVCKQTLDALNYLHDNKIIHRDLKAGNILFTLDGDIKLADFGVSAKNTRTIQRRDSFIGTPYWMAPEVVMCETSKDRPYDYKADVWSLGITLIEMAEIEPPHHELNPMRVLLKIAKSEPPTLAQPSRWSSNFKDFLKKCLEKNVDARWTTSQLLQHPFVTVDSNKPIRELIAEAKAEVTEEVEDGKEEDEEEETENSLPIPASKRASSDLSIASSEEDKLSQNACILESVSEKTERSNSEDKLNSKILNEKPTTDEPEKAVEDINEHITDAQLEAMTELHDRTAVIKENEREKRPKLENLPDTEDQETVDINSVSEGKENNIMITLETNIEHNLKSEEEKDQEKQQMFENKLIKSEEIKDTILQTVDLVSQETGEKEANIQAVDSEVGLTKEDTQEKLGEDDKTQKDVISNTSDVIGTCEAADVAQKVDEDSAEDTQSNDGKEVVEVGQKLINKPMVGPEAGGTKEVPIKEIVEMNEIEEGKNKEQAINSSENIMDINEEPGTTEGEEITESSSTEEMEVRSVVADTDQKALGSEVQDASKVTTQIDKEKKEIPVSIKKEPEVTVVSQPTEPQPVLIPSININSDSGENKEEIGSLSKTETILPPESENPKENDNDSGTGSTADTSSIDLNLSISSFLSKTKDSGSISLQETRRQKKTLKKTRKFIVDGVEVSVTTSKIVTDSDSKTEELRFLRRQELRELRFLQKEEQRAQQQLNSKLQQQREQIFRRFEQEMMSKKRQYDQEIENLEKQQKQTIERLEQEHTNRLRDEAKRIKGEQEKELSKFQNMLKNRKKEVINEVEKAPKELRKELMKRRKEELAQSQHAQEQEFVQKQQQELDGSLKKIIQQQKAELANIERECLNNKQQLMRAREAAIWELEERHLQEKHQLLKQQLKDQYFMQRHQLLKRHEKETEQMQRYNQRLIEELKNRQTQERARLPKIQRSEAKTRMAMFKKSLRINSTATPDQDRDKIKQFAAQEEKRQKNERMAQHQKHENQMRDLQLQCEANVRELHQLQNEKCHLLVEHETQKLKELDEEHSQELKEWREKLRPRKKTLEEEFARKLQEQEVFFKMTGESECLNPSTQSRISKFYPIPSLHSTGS

CDK1 CCNA2 (human) = CDK1 CCNA2 (human) (UniProt P06493+P20248)
[1] = tested on: FLT4 (human), P35916 [Q890H]
RPS6KA3 KD1 KD2 (human) = RPS6KA3 KD1 KD2 (human) (UniProt P51812)
Chain of RPS6KA3 KD1 KD2 (human) (P51812 whole entry, looked up): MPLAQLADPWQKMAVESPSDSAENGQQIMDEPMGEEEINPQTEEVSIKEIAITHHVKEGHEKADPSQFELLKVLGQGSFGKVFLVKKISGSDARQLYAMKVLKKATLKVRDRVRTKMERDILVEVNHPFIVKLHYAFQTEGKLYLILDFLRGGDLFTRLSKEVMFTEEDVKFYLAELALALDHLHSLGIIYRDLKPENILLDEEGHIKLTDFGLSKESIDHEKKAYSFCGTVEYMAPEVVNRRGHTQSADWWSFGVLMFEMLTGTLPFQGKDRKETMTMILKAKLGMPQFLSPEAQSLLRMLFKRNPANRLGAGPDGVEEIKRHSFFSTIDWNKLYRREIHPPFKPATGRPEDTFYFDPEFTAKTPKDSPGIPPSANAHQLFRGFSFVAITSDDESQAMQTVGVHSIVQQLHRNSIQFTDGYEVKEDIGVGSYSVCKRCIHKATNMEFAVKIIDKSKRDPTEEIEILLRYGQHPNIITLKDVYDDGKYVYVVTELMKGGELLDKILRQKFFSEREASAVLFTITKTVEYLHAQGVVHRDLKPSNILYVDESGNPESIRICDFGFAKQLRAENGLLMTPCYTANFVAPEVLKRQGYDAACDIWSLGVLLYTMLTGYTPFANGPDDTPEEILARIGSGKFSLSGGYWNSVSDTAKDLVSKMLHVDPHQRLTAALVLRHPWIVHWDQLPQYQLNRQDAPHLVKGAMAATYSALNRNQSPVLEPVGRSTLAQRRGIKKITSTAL

FGFR4 (human) = FGFR4 (human) (UniProt P22455)
HIPK3 (human) = HIPK3 (human) (UniProt Q9H422)
KIT (human) = KIT (human) (UniProt P10721)
PIM2 (human) = PIM2 (human) (UniProt Q9P1W9)
DAPK1 (human) = DAPK1 (human) (UniProt P53355)
BLK (human) = BLK (human) (UniProt P51451)
MYLK (human) = MYLK (human) (UniProt Q15746)
PAK1 (human) = PAK1 (human) (UniProt Q13153)
IKBKB (human) = IKBKB (human) (UniProt O14920)
EPHB3 (human) = EPHB3 (human) (UniProt P54753)
MAP3K7 TAB1 (human) = MAP3K7 TAB1 (human) (UniProt O43318+Q15750)
CDK2 CCNE1 (human) = CDK2 CCNE1 (human) (UniProt P24941+P24864)
Chain of CDK2 CCNE1 (human) (P24864 whole entry, looked up, other chains not shown): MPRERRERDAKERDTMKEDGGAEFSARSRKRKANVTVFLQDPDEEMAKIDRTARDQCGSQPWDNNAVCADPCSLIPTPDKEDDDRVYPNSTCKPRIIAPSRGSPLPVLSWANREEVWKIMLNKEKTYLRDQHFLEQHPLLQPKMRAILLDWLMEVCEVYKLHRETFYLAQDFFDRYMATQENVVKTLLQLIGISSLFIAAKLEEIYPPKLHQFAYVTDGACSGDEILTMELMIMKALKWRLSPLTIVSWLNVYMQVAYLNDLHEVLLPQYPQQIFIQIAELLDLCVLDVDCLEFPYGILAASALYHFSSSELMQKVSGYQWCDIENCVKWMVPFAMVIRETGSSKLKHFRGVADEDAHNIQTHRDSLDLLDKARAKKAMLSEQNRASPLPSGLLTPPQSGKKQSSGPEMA

FER (human) = FER (human) (UniProt P16591)
CAMK2D (human) = CAMK2D (human) (UniProt Q13557)
INSR (human) = INSR (human) (UniProt P06213)
EPHA4 (human) = EPHA4 (human) (UniProt P54764)
PRKCG (human) = PRKCG (human) (UniProt P05129)

Chain of RPS6KA6 KD1 KD2 (human) (Q9UK32 whole entry, looked up): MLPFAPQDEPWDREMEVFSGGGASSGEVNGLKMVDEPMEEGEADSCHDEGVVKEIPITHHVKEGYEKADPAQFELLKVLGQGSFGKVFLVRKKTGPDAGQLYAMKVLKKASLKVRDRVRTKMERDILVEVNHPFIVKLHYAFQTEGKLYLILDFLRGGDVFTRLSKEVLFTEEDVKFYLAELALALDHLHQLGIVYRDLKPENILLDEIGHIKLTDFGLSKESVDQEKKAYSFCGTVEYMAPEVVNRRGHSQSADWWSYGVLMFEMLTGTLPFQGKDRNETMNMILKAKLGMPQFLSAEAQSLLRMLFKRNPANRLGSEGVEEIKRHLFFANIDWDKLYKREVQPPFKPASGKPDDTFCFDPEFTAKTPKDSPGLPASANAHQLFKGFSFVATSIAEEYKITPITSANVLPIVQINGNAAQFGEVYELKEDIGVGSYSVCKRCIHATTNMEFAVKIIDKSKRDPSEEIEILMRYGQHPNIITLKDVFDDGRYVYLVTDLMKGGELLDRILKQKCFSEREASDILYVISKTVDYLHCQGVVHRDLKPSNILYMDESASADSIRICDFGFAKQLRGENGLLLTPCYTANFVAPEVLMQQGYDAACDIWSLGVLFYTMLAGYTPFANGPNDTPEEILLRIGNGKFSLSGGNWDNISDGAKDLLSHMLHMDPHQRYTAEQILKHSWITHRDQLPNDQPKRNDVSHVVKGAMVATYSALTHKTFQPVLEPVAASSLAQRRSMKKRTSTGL

c1ccc2c(-c3ccncc3)c[nH]c2c1
residual activity (MATK (human)): 93.9% | residual activity (RPS6KA6 KD1 KD2 (human)): 112% | residual activity (BRSK2 (human)): 98.6% | residual activity (NTRK1 (human)): 97% | residual activity (RET (human)): 97.3% | residual activity (EPHA2 (human)): 106% | residual activity (TEK (human)): 101% | residual activity (TEC (human)): 123% | residual activity (EPHB4 (human)): 89.7% | residual activity (NEK4 (human)): 95.4% | residual activity (CAMK2G (human)): 92.6% | residual activity (MAPK12 (human)): 104% | residual activity (ACVR1B (human)): 98.8% | residual activity (DAPK3 (human)): 101% | residual activity (NEK1 (human)): 101% | residual activity (MST1R (human)): 98.9% | residual activity (ULK1 (human)): 83.8% | residual activity (AKT1 (human)): 100% | residual activity (ROCK2 (human)): 71.9% | residual activity (ADRBK2 (human)): 95.4% | residual activity (STK39 (human)): 99.8% | residual activity (SLK (human)): 103% | residual activity (CDK1 CCNA2 (human)): 90.6% | residual activity [1]: 119% | residual activity (RPS6KA3 KD1 KD2 (human)): 97.4% | residual activity (FGFR4 (human)): 84.6% | residual activity (HIPK3 (human)): 107% | residual activity (KIT (human)): 93.2% | residual activity (PIM2 (human)): 105% | residual activity (DAPK1 (human)): 97.7% | residual activity (BLK (human)): 99.6% | residual activity (MYLK (human)): 96.8% | residual activity (PAK1 (human)): 99.1% | residual activity (IKBKB (human)): 102% | residual activity (EPHB3 (human)): 100% | residual activity (MAP3K7 TAB1 (human)): 95.5% | residual activity (CDK2 CCNE1 (human)): 91.7% | residual activity (FER (human)): 91.6% | residual activity (CAMK2D (human)): 103% | residual activity (INSR (human)): 90.5% | residual activity (EPHA4 (human)): 108% | residual activity (PRKCG (human)): 99.4%

O=C1Nc2ccc(Br)cc2/C1=C\c1cc2c([nH]1)CCCC2
residual activity (MATK (human)): 94.2% | residual activity (RPS6KA6 KD1 KD2 (human)): 78.6% | residual activity (BRSK2 (human)): 93.8% | residual activity (NTRK1 (human)): 51.8% | residual activity (RET (human)): 42.9% | residual activity (EPHA2 (human)): 110% | residual activity (TEK (human)): 98.2% | residual activity (TEC (human)): 129% | residual activity (EPHB4 (human)): 88.6% | residual activity (NEK4 (human)): 80.5% | residual activity (CAMK2G (human)): 92.4% | residual activity (MAPK12 (human)): 93% | residual activity (ACVR1B (human)): 99% | residual activity (DAPK3 (human)): 92.8% | residual activity (NEK1 (human)): 94.6% | residual activity (MST1R (human)): 88.3% | residual activity (ULK1 (human)): 69.4% | residual activity (AKT1 (human)): 99.8% | residual activity (ROCK2 (human)): 92.8% | residual activity (ADRBK2 (human)): 89.9% | residual activity (STK39 (human)): 86% | residual activity (SLK (human)): 73.4% | residual activity (CDK1 CCNA2 (human)): 96.3% | residual activity [1]: 56.1% | residual activity (RPS6KA3 KD1 KD2 (human)): 80.9% | residual activity (FGFR4 (human)): 77% | residual activity (HIPK3 (human)): 96.7% | residual activity (KIT (human)): 30.5% | residual activity (PIM2 (human)): 100% | residual activity (DAPK1 (human)): 111% | residual activity (BLK (human)): 74.4% | residual activity (MYLK (human)): 95.7% | residual activity (PAK1 (human)): 95.7% | residual activity (IKBKB (human)): 102% | residual activity (EPHB3 (human)): 99.7% | residual activity (MAP3K7 TAB1 (human)): 60.9% | residual activity (CDK2 CCNE1 (human)): 96% | residual activity (FER (human)): 74.7% | residual activity (CAMK2D (human)): 84.2% | residual activity (INSR (human)): 85.8% | residual activity (EPHA4 (human)): 94.8% | residual activity (PRKCG (human)): 100%

CN(C)CCCn1cc(C2=C(c3c[nH]c4ccccc34)C(=O)NC2=O)c2ccccc21
residual activity (MATK (human)): 100% | residual activity (RPS6KA6 KD1 KD2 (human)): 3.97% | residual activity (BRSK2 (human)): 55.6% | residual activity (NTRK1 (human)): 108% | residual activity (RET (human)): 93.4% | residual activity (EPHA2 (human)): 81.8% | residual activity (TEK (human)): 99.7% | residual activity (TEC (human)): 116% | residual activity (EPHB4 (human)): 86.8% | residual activity (NEK4 (human)): 94.3% | residual activity (CAMK2G (human)): 73.3% | residual activity (MAPK12 (human)): 95.9% | residual activity (ACVR1B (human)): 106% | residual activity (DAPK3 (human)): 84.5% | residual activity (NEK1 (human)): 92.5% | residual activity (MST1R (human)): 109% | residual activity (ULK1 (human)): 84.7% | residual activity (AKT1 (human)): 93.5% | residual activity (ROCK2 (human)): 113% | residual activity (ADRBK2 (human)): 99% | residual activity (STK39 (human)): 91.9% | residual activity (SLK (human)): 45.8% | residual activity (CDK1 CCNA2 (human)): 100% | residual activity [1]: 30.6% | residual activity (RPS6KA3 KD1 KD2 (human)): 2.47% | residual activity (FGFR4 (human)): 89% | residual activity (HIPK3 (human)): 102% | residual activity (KIT (human)): 69.5% | residual activity (PIM2 (human)): 64.1% | residual activity (DAPK1 (human)): 87.9% | residual activity (BLK (human)): 87% | residual activity (MYLK (human)): 23.2% | residual activity (PAK1 (human)): 84.2% | residual activity (IKBKB (human)): 119% | residual activity (EPHB3 (human)): 95.2% | residual activity (MAP3K7 TAB1 (human)): 93.6% | residual activity (CDK2 CCNE1 (human)): 80.4% | residual activity (FER (human)): 69.8% | residual activity (CAMK2D (human)): 38.7% | residual activity (INSR (human)): 88.9% | residual activity (EPHA4 (human)): 88.2% | residual activity (PRKCG (human)): 17.6%

COc1cc2ncnc(Nc3ccc(OCc4ccccc4)cc3)c2cc1OC
residual activity (MATK (human)): 97.5% | residual activity (RPS6KA6 KD1 KD2 (human)): 95.9% | residual activity (BRSK2 (human)): 98.7% | residual activity (NTRK1 (human)): 97.1% | residual activity (RET (human)): 89.1% | residual activity (EPHA2 (human)): 106% | residual activity (TEK (human)): 97.9% | residual activity (TEC (human)): 106% | residual activity (EPHB4 (human)): 94.6% | residual activity (NEK4 (human)): 86.9% | residual activity (CAMK2G (human)): 94.2% | residual activity (MAPK12 (human)): 102% | residual activity (ACVR1B (human)): 102% | residual activity (DAPK3 (human)): 99.2% | residual activity (NEK1 (human)): 104% | residual activity (MST1R (human)): 106% | residual activity (ULK1 (human)): 107% | residual activity (AKT1 (human)): 103% | residual activity (ROCK2 (human)): 96% | residual activity (ADRBK2 (human)): 99.6% | residual activity (STK39 (human)): 95.8% | residual activity (SLK (human)): 76.4% | residual activity (CDK1 CCNA2 (human)): 97.2% | residual activity [1]: 98.9% | residual activity (RPS6KA3 KD1 KD2 (human)): 103% | residual activity (FGFR4 (human)): 106% | residual activity (HIPK3 (human)): 85.3% | residual activity (KIT (human)): 63% | residual activity (PIM2 (human)): 97.6% | residual activity (DAPK1 (human)): 98.5% | residual activity (BLK (human)): 88.2% | residual activity (MYLK (human)): 95% | residual activity (PAK1 (human)): 93.2% | residual activity (IKBKB (human)): 103% | residual activity (EPHB3 (human)): 90% | residual activity (MAP3K7 TAB1 (human)): 101% | residual activity (CDK2 CCNE1 (human)): 96.7% | residual activity (FER (human)): 90.8% | residual activity (CAMK2D (human)): 95.8% | residual activity (INSR (human)): 100% | residual activity (EPHA4 (human)): 98.5% | residual activity (PRKCG (human)): 98.5%
